Measurements published in patent US10588317B2, “Isoxazoline-substituted benzamides and analogues as insecticides” (priority 2015, dated 2020).

How the values were obtained:
Type in all cases: in vivo
[1] = system: Diabrotica balteata; test: Diabrotica balteata (corn root worm), sprayed maize sprouts; conditions: 96 h, application rate 200 ppm, L2 larvae, 4 days after infestation, read-out: effect in at least one of the two categories (mortality or growth inhibition)
Outline: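 Maize sprouts on agar sprayed with aqueous dilutions of DMSO stocks, dried, then infested with L2 larvae (6–10 per well). Mortality and growth inhibition scored against untreated controls 4 days after infestation, at 200 ppm application rate.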

[2] = system: Euschistus heros; test: Euschistus heros (neotropical brown stink bug), sprayed soybean leaves; conditions: 120 h, application rate 200 ppm, N2 nymphs, 5 days after infestation, read-out: effect in at least one of the two categories (mortality or growth inhibition)
Outline: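 Soybean leaves on agar sprayed with aqueous dilutions of DMSO stocks, dried, then infested with N2 nymphs. Mortality and growth inhibition scored against untreated samples 5 days after infestation; application rate 200 ppm.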

[3] = system: Myzus persicae; test: Myzus persicae (green peach aphid): feeding/contact activity; conditions: 144 h, application rate 200 ppm, aphid population of mixed ages, 6 days after infestation, read-out: mortality
Experimental: (§1) Sunflower leaf discs were placed onto agar in a 24-well microtiter plate and sprayed with aqueous test solutions prepared from 10'000 ppm DMSO stock solutions. After drying, the leaf discs were infested with an aphid population of mixed ages. The samples were assessed for mortality 6 days after infestation.

[4] = system: Plutella xylostella; test: Plutella xylostella (diamond back moth), artificial diet; conditions: 120 h, application rate 200 ppm, L2 larvae, 5 days after infestation, read-out: effect in at least one of the two categories (mortality or growth inhibition)
Outline: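 Artificial diet in 24-well plates treated with aqueous test solutions made from 10'000 ppm DMSO stocks, dried, then infested with L2 larvae (10 to 15 per well). Mortality and growth inhibition scored against untreated samples 5 days after infestation; activity cut-off at least 80% in either category at 200 ppm.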

[5] = system: Spodoptera littoralis; test: Spodoptera littoralis (Egyptian cotton leaf worm), sprayed cotton leaf discs; conditions: foliar, 72 h, application rate 200 ppm, L1 larvae, 3 days after infestation, read-out: control (mortality, anti-feeding effect, growth inhibition)
Outline: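 Cotton leaf discs on agar sprayed with aqueous test solutions made from 10'000 ppm DMSO stock; after drying, infested with five L1 larvae. Mortality, anti-feeding and growth inhibition scored versus untreated samples 3 days after infestation; control counted when any category exceeds untreated.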

[6] = system: Spodoptera littoralis; test: Spodoptera littoralis (Egyptian cotton leaf worm), uptake by lettuce roots from agar; conditions: 144 h, read-out: effect in at least one of the three categories (mortality, anti-feeding, or growth inhibition);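 also: 12.5 ppm test rate in agar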
Outline: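 Compound from 10'000 ppm DMSO stocks was mixed into agar, and lettuce grew on it for 7 days to take it up via roots. Cut leaves were infested with Spodoptera eggs; mortality, anti-feedant effect and growth inhibition scored 6 days later versus untreated samples.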

[7] = system: Tetranychus urticae; test: Tetranychus urticae (two-spotted spider mite): feeding/contact activity; conditions: 192 h, application rate 200 ppm, mixed population (mobile stages), 8 days after infestation, read-out: mortality
Experimental: Bean leaf discs on agar in 24-well microtiter plates were sprayed with aqueous test solutions prepared from 10'000 ppm DMSO stock solutions. After drying the leaf discs were infested with a mite population of mixed ages. The samples were assessed for mortality on mixed population (mobile stages) 8 days after infestation.

[8] = system: Thrips tabaci; test: Thrips tabaci (onion thrips): feeding/contact activity; conditions: 144 h, application rate 200 ppm, Thrips population of mixed ages, 6 days after infestation, read-out: mortality
Experimental: as §1, with “on” for “onto”, “in” for “in a”, “plates” for “plate”, “drying” for “drying,”, “a Thrips” for “an aphid”

CCS(=O)(=O)N1C[C@@H](NC(=O)c2ccc(C3=NO[C@@](c4cc(Cl)c(F)c(Cl)c4)(C(F)(F)F)C3)cc2C)CO1 [Compound A119]
≥ 80%: percent effect (mortality or growth inhibition) at 200 ppm [1] | percent effect (mortality or growth inhibition) at 200 ppm [2] | mortality at 200 ppm [3] | percent effect (mortality or growth inhibition) at 200 ppm [4] | mortality at 200 ppm [5] | percent control (mortality, anti-feedant effect or growth inhibition) at 12.5 ppm [6] | mortality at 200 ppm [7] | mortality at 200 ppm [8]

CCS(=O)(=O)N1C[C@@H](NC(=O)c2ccc(C3=NO[C@@](c4cc(Cl)cc(C(F)(F)F)c4)(C(F)(F)F)C3)cc2C)CO1 [Compound A120, 4-[(5S)-5-[3-chloro-5-(trifluoromethyl)phenyl]-5-(trifluoromethyl)-4H-isoxazol-3-yl]-N-[(4R)-2-ethylsulfonylisoxazolidin-4-yl]-2-methyl-benzamide]
≥ 80%: percent effect (mortality or growth inhibition) at 200 ppm [1] | percent effect (mortality or growth inhibition) at 200 ppm [2] | mortality at 200 ppm [3] | percent effect (mortality or growth inhibition) at 200 ppm [4] | mortality at 200 ppm [5] | percent control (mortality, anti-feedant effect or growth inhibition) at 12.5 ppm [6] | mortality at 200 ppm [7] | mortality at 200 ppm [8]

CCS(=O)(=O)N1C[C@@H](NC(=O)c2ccc(C3=NO[C@@](c4cc(Cl)cc(C(F)(F)F)c4)(C(F)(F)F)C3)cc2Cl)CO1 [Compound A122]
≥ 80%: percent effect (mortality or growth inhibition) at 200 ppm [1] | percent effect (mortality or growth inhibition) at 200 ppm [2] | mortality at 200 ppm [3] | percent effect (mortality or growth inhibition) at 200 ppm [4] | mortality at 200 ppm [5] | percent control (mortality, anti-feedant effect or growth inhibition) at 12.5 ppm [6] | mortality at 200 ppm [7] | mortality at 200 ppm [8]

CS(=O)(=O)N1C[C@@H](NC(=O)c2ccc(C3=NO[C@@](c4cc(Cl)cc(C(F)(F)F)c4)(C(F)(F)F)C3)cc2Cl)CO1 [Compound A123]
≥ 80%: percent effect (mortality or growth inhibition) at 200 ppm [1] | percent effect (mortality or growth inhibition) at 200 ppm [2] | mortality at 200 ppm [3] | percent effect (mortality or growth inhibition) at 200 ppm [4] | mortality at 200 ppm [5] | percent control (mortality, anti-feedant effect or growth inhibition) at 12.5 ppm [6] | mortality at 200 ppm [7] | mortality at 200 ppm [8]

CCNS(=O)(=O)N1C[C@@H](NC(=O)c2ccc(C3=NO[C@@](c4cc(Cl)c(Cl)c(Cl)c4)(C(F)(F)F)C3)cc2Cl)CO1 [Compound A125, 2-chloro-N-[(4R)-2-(ethylsulfamoyl)isoxazolidin-4-yl]-4-[(5S)-5-(3,4,5-trichlorophenyl)-5-(trifluoromethyl)-4H-isoxazol-3-yl]benzamide]
≥ 80%: percent effect (mortality or growth inhibition) at 200 ppm [1] | percent effect (mortality or growth inhibition) at 200 ppm [2] | mortality at 200 ppm [3] | percent effect (mortality or growth inhibition) at 200 ppm [4] | mortality at 200 ppm [5] | percent control (mortality, anti-feedant effect or growth inhibition) at 12.5 ppm [6] | mortality at 200 ppm [7] | mortality at 200 ppm [8]

CNS(=O)(=O)N1C[C@@H](NC(=O)c2ccc(C3=NO[C@@](c4cc(Cl)c(Cl)c(Cl)c4)(C(F)(F)F)C3)cc2Cl)CO1 [Compound A126, 2-chloro-N-[(4R)-2-(methylsulfamoyl)isoxazolidin-4-yl]-4-[(5S)-5-(3,4,5-trichlorophenyl)-5-(trifluoromethyl)-4H-isoxazol-3-yl]benzamide]
≥ 80%: percent effect (mortality or growth inhibition) at 200 ppm [1] | percent effect (mortality or growth inhibition) at 200 ppm [2] | mortality at 200 ppm [3] | percent effect (mortality or growth inhibition) at 200 ppm [4] | mortality at 200 ppm [5] | percent control (mortality, anti-feedant effect or growth inhibition) at 12.5 ppm [6] | mortality at 200 ppm [7] | mortality at 200 ppm [8]

CCNS(=O)(=O)N1C[C@@H](NC(=O)c2ccc(C3=NO[C@@](c4cc(Cl)cc(C(F)(F)F)c4)(C(F)(F)F)C3)cc2Cl)CO1 [Compound A128]
≥ 80%: percent effect (mortality or growth inhibition) at 200 ppm [1] | percent effect (mortality or growth inhibition) at 200 ppm [2] | mortality at 200 ppm [3] | percent effect (mortality or growth inhibition) at 200 ppm [4] | mortality at 200 ppm [5] | percent control (mortality, anti-feedant effect or growth inhibition) at 12.5 ppm [6] | mortality at 200 ppm [7] | mortality at 200 ppm [8]

CCN(C)S(=O)(=O)N1C[C@@H](NC(=O)c2ccc(C3=NO[C@@](c4cc(Cl)cc(C(F)(F)F)c4)(C(F)(F)F)C3)cc2Cl)CO1 [Compound A130, 2-chloro-4-[(5S)-5-[3-chloro-5-(trifluoromethyl)phenyl]-5-(trifluoromethyl)-4H-isoxazol-3-yl]-N-[(4R)-2-[ethyl(methyl)sulfamoyl]isoxazolidin-4-yl]benzamide]
≥ 80%: percent effect (mortality or growth inhibition) at 200 ppm [1] | percent effect (mortality or growth inhibition) at 200 ppm [2] | mortality at 200 ppm [3] | percent effect (mortality or growth inhibition) at 200 ppm [4] | mortality at 200 ppm [5] | percent control (mortality, anti-feedant effect or growth inhibition) at 12.5 ppm [6] | mortality at 200 ppm [7] | mortality at 200 ppm [8]

CCN(C)S(=O)(=O)N1C[C@@H](NC(=O)c2ccc(C3=NO[C@@](c4cc(Cl)c(F)c(Cl)c4)(C(F)(F)F)C3)cc2Cl)CO1 [Compound A131, 2-chloro-4-[(5S)-5-(3,5-dichloro-4-fluoro-phenyl)-5-(trifluoromethyl)-4H-isoxazol-3-yl]-N-[(4R)-2-[ethyl(methyl)sulfamoyl]isoxazolidin-4-yl]benzamide]
≥ 80%: percent effect (mortality or growth inhibition) at 200 ppm [1] | percent effect (mortality or growth inhibition) at 200 ppm [2] | mortality at 200 ppm [3] | percent effect (mortality or growth inhibition) at 200 ppm [4] | mortality at 200 ppm [5] | percent control (mortality, anti-feedant effect or growth inhibition) at 12.5 ppm [6] | mortality at 200 ppm [7] | mortality at 200 ppm [8]

CCN(C)S(=O)(=O)N1C[C@@H](NC(=O)c2ccc(C3=NO[C@@](c4cc(Cl)c(Cl)c(Cl)c4)(C(F)(F)F)C3)cc2Cl)CO1 [Compound A132, 2-chloro-N-[(4R)-2-[ethyl(methyl)sulfamoyl]isoxazolidin-4-yl]-4-[(5S)-5-(3,4,5-trichlorophenyl)-5-(trifluoromethyl)-4H-isoxazol-3-yl]benzamide]
≥ 80%: percent effect (mortality or growth inhibition) at 200 ppm [1] | percent effect (mortality or growth inhibition) at 200 ppm [2] | mortality at 200 ppm [3] | percent effect (mortality or growth inhibition) at 200 ppm [4] | mortality at 200 ppm [5] | percent control (mortality, anti-feedant effect or growth inhibition) at 12.5 ppm [6] | mortality at 200 ppm [7] | mortality at 200 ppm [8]

CCNS(=O)(=O)N1C[C@@H](NC(=O)c2ccc(C3=NO[C@@](c4cc(Cl)c(F)c(Cl)c4)(C(F)(F)F)C3)cc2C)CO1 [Compound A133, 4-[(5S)-5-(3,5-dichloro-4-fluoro-phenyl)-5-(trifluoromethyl)-4H-isoxazol-3-yl]-N-[(4R)-2-(ethylsulfamoyl)isoxazolidin-4-yl]-2-methyl-benzamide]
≥ 80%: percent effect (mortality or growth inhibition) at 200 ppm [1] | percent effect (mortality or growth inhibition) at 200 ppm [2] | mortality at 200 ppm [3] | percent effect (mortality or growth inhibition) at 200 ppm [4] | mortality at 200 ppm [5] | percent control (mortality, anti-feedant effect or growth inhibition) at 12.5 ppm [6] | mortality at 200 ppm [7] | mortality at 200 ppm [8]

CCNS(=O)(=O)N1C[C@@H](NC(=O)c2ccc(C3=NO[C@@](c4cc(Cl)cc(C(F)(F)F)c4)(C(F)(F)F)C3)cc2C)CO1 [Compound A134]
≥ 80%: percent effect (mortality or growth inhibition) at 200 ppm [1] | percent effect (mortality or growth inhibition) at 200 ppm [2] | mortality at 200 ppm [3] | percent effect (mortality or growth inhibition) at 200 ppm [4] | mortality at 200 ppm [5] | percent control (mortality, anti-feedant effect or growth inhibition) at 12.5 ppm [6] | mortality at 200 ppm [7] | mortality at 200 ppm [8]

CCNS(=O)(=O)N1C[C@@H](NC(=O)c2ccc(C3=NO[C@@](c4cc(Cl)cc(Cl)c4)(C(F)(F)F)C3)cc2C)CO1 [Compound A135, 4-[(5S)-5-(3,5-dichlorophenyl)-5-(trifluoromethyl)-4H-isoxazol-3-yl]-N-[(4R)-2-(ethylsulfamoyl)isoxazolidin-4-yl]-2-methyl-benzamide]
≥ 80%: percent effect (mortality or growth inhibition) at 200 ppm [1] | percent effect (mortality or growth inhibition) at 200 ppm [2] | mortality at 200 ppm [3] | percent effect (mortality or growth inhibition) at 200 ppm [4] | mortality at 200 ppm [5] | percent control (mortality, anti-feedant effect or growth inhibition) at 12.5 ppm [6] | mortality at 200 ppm [7] | mortality at 200 ppm [8]
